Data: ChEMBL document CHEMBL4725277, “Synthetic and therapeutic perspectives of nitrogen containing heterocycles as anti-convulsants” (Bioorg Med Chem, 2020)

Columns and labels:
Mus musculus [1] = assay: Anticonvulsant activity in ip injected albino mouse assessed as protection against 50 mA current-induced seizure by maximal electroshock seizure test; format: functional
[2] = Protective index, ratio of TD50 for neurotoxicity in ip injected albino mouse to ED50 for anticonvulsant activity in ip injected albino mouse assessed as protection against 50 mA current-induced seizure; format: toxicity, organism-based; conditions: in vivo
[3] = Neurotoxicity in ip injected albino mouse; format: toxicity, organism-based; conditions: in vivo
Mus musculus [4] = species: Mus musculus; assay: Anticonvulsant activity in mouse assessed as protection against current-induced seizure by maximal electroshock seizure test; format: functional
[5] = Protective index, ratio of TD50 for neurotoxicity in mouse to ED50 for anticonvulsant activity in mouse assessed as protection against pentylenetetrazole-induced seizure; format: toxicity; conditions: in vivo, read-out: PI
Mus musculus [6] = species: Mus musculus; assay: Anticonvulsant activity in albino mouse assessed as pentylenetetrazole-induced seizure; format: functional
[7] = Protective index, ratio of TD50 for neurotoxicity in mouse to ED50 for anticonvulsant activity in mouse assessed as protection against current-induced seizure; format: toxicity; conditions: in vivo, read-out: PI
[8] = Neurotoxicity in mouse by rotarod test; format: toxicity; conditions: in vivo
Mus musculus [9] = species: Mus musculus; assay: Anticonvulsant activity in albino mouse assessed as current-induced seizure relative to control; format: functional
Mus musculus [10] = species: Mus musculus; assay: Anticonvulsant activity in albino mouse assessed as current-induced seizure latency time; format: functional
Mus musculus [11] = assay: Anticonvulsant activity in albino mouse assessed as protection against 50 mA current-induced seizure at 50 mg/kg by maximal electroshock seizure test relative to control; format: functional
Mus musculus [12] = species: Mus musculus; assay: Anticonvulsant activity in albino mouse assessed as protection against 50 mA current-induced seizure; format: functional; conditions: read-out: PD50
Mus musculus [13] = assay: Anticonvulsant activity in albino mouse assessed as protection against 50 mA current-induced seizure at 100 mg/kg by maximal electroshock seizure test relative to control; format: functional
Mus musculus [14] = assay: Anticonvulsant activity in albino mouse assessed as protection against 50 mA current-induced seizure at 200 mg/kg by maximal electroshock seizure test relative to control; format: functional
Mus musculus [15] = assay: Anticonvulsant activity in ip injected albino mouse assessed as protection against 50 mA current-induced seizure after 0.5 to 4 hrs interval by maximal electroshock seizure test; format: functional; conditions: time hrs 0.5-4
Mus musculus [16] = species: Mus musculus; assay: Anticonvulsant activity in albino mouse assessed as pentylenetetrazole-induced seizure measured after 30 mins; format: functional; conditions: 0.5 h
[17] = Protective index, ratio of TD50 for neurotoxicity in ip injected albino mouse to ED50 for anticonvulsant activity in albino mouse assessed as pentylenetetrazole-induced seizure; format: toxicity, organism-based; conditions: in vivo
[18] = Lipophilicity, log P of the compound; format: physicochemical; conditions: octanol/water
[19] = Protective index, ratio of TD50 for neurotoxicity in ip and po injected mouse to ED50 for anticonvulsant activity in mouse assessed as protection against 50 mA current-induced seizure; format: toxicity, organism-based; conditions: in vivo, read-out: PI
Mus musculus [20] = species: Mus musculus; assay: Anticonvulsant activity in mouse assessed as protection against 50 mA current-induced seizure after 0.5 hrs by maximal electroshock seizure test; format: functional
[21] = Neurotoxicity in ip and po injected mouse; format: toxicity, organism-based; conditions: in vivo
[22] = Neurotoxicity in albino rat at 100 mg/kg, ip after 30 mins (reference value: 2%); format: toxicity, organism-based; conditions: in vivo, 0.5 h
[23] = Neurotoxicity in KunMing mouse after 30 mins by rotarod test; format: toxicity; conditions: in vivo
Mus musculus [24] = species: Mus musculus; assay: Anticonvulsant activity in KunMing mouse assessed as protection against 50 mA current-induced seizure after 30 mins interval by maximal electroshock seizure test; format: functional; conditions: 0.5 h
Mus musculus [25] = species: Mus musculus; assay: Anticonvulsant activity in KunMing mouse assessed as protection against current-induced seizure by maximal electroshock seizure test; format: functional
Mus musculus [26] = species: Mus musculus; assay: Anticonvulsant activity in KunMing mouse assessed as protection against 50 mA current-induced seizure after 0.5 to 4 hrs by maximal electroshock seizure test; format: functional; conditions: time hrs 0.5-4
Mus musculus [27] = species: Mus musculus; assay: Anticonvulsant activity in albino mouse assessed as protection against 50 mA current-induced seizure by maximal electroshock seizure test; format: functional
[28] = Neurotoxicity in KunMing mouse by rotarod test; format: toxicity; conditions: in vivo
Mus musculus [29] = species: Mus musculus; assay: Anticonvulsant activity in KunMing mouse assessed as protection against pentylenetetrazole-induced seizure by maximal electroshock seizure test; format: functional
Mus musculus [30] = assay: Anticonvulsant activity in albino mouse assessed as protection against 50 mA current-induced seizure at 10 mg/kg by maximal electroshock seizure test relative to control; format: functional
Mus musculus [31] = assay: Anticonvulsant activity in albino mouse assessed as protection against 50 mA current-induced seizure at 20 mg/kg by maximal electroshock seizure test relative to control; format: functional
Mus musculus [32] = assay: Anticonvulsant activity in albino mouse assessed as protection against 50 mA current-induced seizure at 30 mg/kg by maximal electroshock seizure test relative to control; format: functional
Mus musculus [33] = assay: Anticonvulsant activity in albino mouse assessed as protection against 50 mA current-induced seizure at 25 mg/kg by maximal electroshock seizure test relative to control; format: functional

Nc1nc(-c2ccccc2)nnc1C(=O)N1CCCC1c1noc2cc(F)ccc12 (configuration not stated)
ED50 (Mus musculus [1]): 6.2 mg/kg
selectivity ratio ([2]; read-out: Ratio): > 48.4
TD50 [3]: > 300 mg/kg

CN(C)c1ccc(C2CC(c3ccccc3)=NC(=S)N2C(=S)Nc2ccccc2)cc1 (configuration not stated)
ED50 (Mus musculus [4]): 32.2 mg/kg
selectivity ratio [5]: 1.7
ED50 (Mus musculus [6]): 332 mg/kg
selectivity ratio [7]: 18
TD50 [8]: 580 mg/kg

CC(=O)Oc1cc2ccccc2cc1-c1nnc(N(C(C)=O)c2cccc(F)c2)s1
Activity (Mus musculus [9]): 70%
Time (Mus musculus [10]): 4.41 min

O=C(CNC(=O)c1ccncc1)Nn1c(COc2ccc(Cl)cc2Cl)nc2ccccc2c1=O
Activity (Mus musculus [11]): 50%
ED50 (Mus musculus [12]): 103 mg/kg
Activity (Mus musculus [13]): 70%
Activity (Mus musculus [14]): 80%

S=C1N=C(c2ccccc2)CC(c2ccccc2)N1c1ccc(Cl)cc1 (configuration not stated)
ED50 (Mus musculus [15]): 19.4 mg/kg
selectivity ratio ([2]; read-out: PI): 21.6
TD50 [3]: 420 mg/kg
ED50 (Mus musculus [16]): 312 mg/kg
selectivity ratio ([17]; read-out: PI): 1.3

COc1ccc(-c2nc(N/N=C/c3cccc(F)c3)[nH]c(=O)c2C#N)cc1
logP [18]: 2.13

Nc1nc(-c2ccccc2)nnc1C(=O)N1CCCC1c1noc2cc(Br)ccc12 (configuration not stated)
ED50 (Mus musculus [1]): 12.2 mg/kg
selectivity ratio ([2]; read-out: Ratio): > 8.22
TD50 [3]: > 100 mg/kg

O=c1c2ccccc2n2cnnc2n1-c1ccc(Br)cc1
selectivity ratio [19]: > 26
ED50 (Mus musculus [20]): 26.89
TD50 [21]: > 700 mg/kg

Nc1ccc(Cl)cc1-c1n[nH]c(=O)n(-c2ccc(O)cc2)c1=O
ED50 (Mus musculus [1]): 51.1 mg/kg
selectivity ratio ([2]; read-out: Ratio): 13.6
ED50 (Mus musculus [6]): 95.3 mg/kg
TD50 [3]: 682 mg/kg
selectivity ratio ([17]; read-out: Ratio): 7.15

Nc1nnc(C(=O)N2CCCC2c2noc3cc(F)ccc23)c(N)n1 (configuration not stated)
ED50 (Mus musculus [1]): 7.1 mg/kg
selectivity ratio ([2]; read-out: Ratio): > 28.2
TD50 [3]: > 200 mg/kg

CN(C)CCOc1ccc2c(c1)/C(=N/NC(N)=O)C(=O)N2
Activity [22]: 7%

CN(C)Nc1ccc(/C=N/Nc2nnc(-c3ccccc3)nc2Cc2ccc(Cl)cc2)cc1
ED50 (Mus musculus [15]): 46 mg/kg
selectivity ratio ([2]; read-out: Ratio): 7.82
TD50 [3]: 360 mg/kg
ED50 (Mus musculus [16]): 83.9 mg/kg
selectivity ratio ([17]; read-out: Ratio): 4.29

NC(=O)N1c2ccccc2C=Cc2ccccc21 [CARBAMAZEPINE]
ED50 (Mus musculus [15]): 8.8 mg/kg
TD50 at 0.5 h [23]: 69.1 mg/kg
ED50 (Mus musculus [4]): 11.8 mg/kg
ED50 (Mus musculus [6]): > 100 mg/kg
TD50 [3]: 65.5 mg/kg
ED50 (Mus musculus [24]): 10.1 mg/kg
ED50 (Mus musculus [25]): 11.8 mg/kg
ED50 (Mus musculus [26]): 9.8 mg/kg
ED50 (Mus musculus [16]): > 100 mg/kg
TD50 [8]: 11.8 mg/kg

CN1C(=O)CN=C(c2ccccc2)c2cc(Cl)ccc21 [DIAZEPAM]
Activity [22]: 88%
ED50 (Mus musculus [16]): 0.7 mg/kg
ED50 (Mus musculus [27]): 0.8 mg/kg

CCC1(C)CC(=O)NC1=O (configuration not stated) [ETHOSUXIMIDE]
ED50 (Mus musculus [1]): > 1000 mg/kg
selectivity ratio ([2]; read-out: Ratio): < 0.44
TD50 [28]: 343 mg/kg
ED50 (Mus musculus [6]): 130 mg/kg
selectivity ratio ([17]; read-out: Ratio): 3.39
ED50 (Mus musculus [29]): 106 mg/kg

CCC1(c2ccccc2)C(=O)NC(=O)NC1=O [PHENOBARBITAL]
Activity (Mus musculus [30]): 40%
ED50 (Mus musculus [4]): 21.8 mg/kg
ED50 (Mus musculus [12]): 14.4 mg/kg
ED50 (Mus musculus [26]): 21.8 mg/kg
Activity (Mus musculus [31]): 60%
Activity (Mus musculus [32]): 100%

O=C1N=C([O-])NC1(c1ccccc1)c1ccccc1.[Na+] [PHENYTOIN SODIUM]
Activity (Mus musculus [33]): 100%

O=C1NC(=O)C(c2ccccc2)(c2ccccc2)N1 [PHENYTOIN]
ED50 (Mus musculus [15]): 8.8 mg/kg
ED50 (Mus musculus [6]): > 300 mg/kg
ED50 (Mus musculus [16]): > 100 mg/kg

CCCC(CCC)C(=O)[O-].[Na+] [VALPROATE SODIUM]
ED50 (Mus musculus [15]): 272 mg/kg
TD50 [3]: 42.6 mg/kg

CCCC(CCC)C(=O)O [VALPROIC ACID]
Time (Mus musculus [10]): 7.2 min
